The supplement of paper PMC10307832

Legend:
Test in all cases: relative viability (nuclei count vs DMSO), 5 days (fraction); higher = more cells survive
[1] = compound: Cn1c(=O)n(-c2ccc(C(C)(C)C#N)cc2)c2c3cc(-c4cnc5ccccc5c4)ccc3ncc21 [Dactolisib] + CC1(C)CCC(c2ccc(Cl)cc2)=C(CN2CCN(c3ccc(C(=O)NS(=O)(=O)c4ccc(N[C@H](CCN5CCOCC5)CSc5ccccc5)c(S(=O)(=O)C(F)(F)F)c4)cc3)CC2)C1 [Navitoclax] (partner 0.5 µM)
How it was run: (§1)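 One day after seeding in 1536-well plates, lung cancer cell lines were dosed by pin tool. Dosing was either single-drug or a fixed anchor-drug dose plus five library-drug doses (not always all listed) in √10 steps. After 5 days, nuclei were stained in one fix-and-stain step and counted on 4× images, and relative viability is the nuclei count of treated wells over that of vehicle wells, given as the median of duplicate plates.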

[2] = compound: C1CCC(CC1)N(CCNCCC2=C3C(=C(C=C2)O)NC(=O)CO3)C(=O)CCNCCC4=CC(=C(C=C4)Cl)Cl [AZ505] + N=C(N)NC(=N)NCCc1ccccc1 [Phenformin] (partner 250 µM)
How it was run: as §1

[3] = compound: C1CCC(CC1)N(CCNCCC2=C3C(=C(C=C2)O)NC(=O)CO3)C(=O)CCNCCC4=CC(=C(C=C4)Cl)Cl [AZ505] + CC(=O)Nc1cccc(-n2c(=O)n(C3CC3)c(=O)c3c(Nc4ccc(I)cc4F)n(C)c(=O)c(C)c32)c1 [Trametinib] (partner 0.02 µM)
How it was run: as §1

[4] = compound: C1CCC(CC1)N(CCNCCC2=C3C(=C(C=C2)O)NC(=O)CO3)C(=O)CCNCCC4=CC(=C(C=C4)Cl)Cl [AZ505] + Nc1ncn([C@H]2C[C@H](O)[C@@H](CO)O2)c(=O)n1 [Decitabine] (partner 2 µM)
How it was run: as §1

Cell Line | relative viability ([1]; first compound 0.002 µM) | relative viability ([1]; first compound 0.02 µM) | relative viability ([1]; first compound 0.06325 µM) | relative viability ([1]; first compound 0.2 µM) | relative viability ([2]; first compound 0.08 µM) | relative viability ([2]; first compound 0.253 µM) | relative viability ([2]; first compound 0.8 µM) | relative viability ([2]; first compound 2.53 µM) | relative viability ([2]; first compound 8 µM) | relative viability ([3]; first compound 0.08 µM) | relative viability ([3]; first compound 0.253 µM) | relative viability ([3]; first compound 0.8 µM) | relative viability ([3]; first compound 2.53 µM) | relative viability ([3]; first compound 8 µM) | relative viability ([4]; first compound 0.08 µM) | relative viability ([4]; first compound 0.253 µM) | relative viability ([4]; first compound 0.8 µM) | relative viability ([4]; first compound 2.53 µM) | relative viability ([4]; first compound 8 µM) | relative viability ([1]; first compound 0.006325 µM)
LC-2-ad | 0.453 | 0.285 | 0.189 | 0.159 | 0.561 | 0.538 | 0.572 | 0.64 | 0.579 | 0.844 | 0.885 | 0.894 | 0.889 | 0.947 | 0.797 | 0.835 | 0.776 | 0.776 | 0.841 | 
CAL-12T | 1.38 | 0.681 | 0.264 | 0.25 | 0.473 | 0.531 | 0.553 | 0.525 | 0.649 | 0.335 | 0.414 | 0.312 | 0.36 | 0.337 |  |  |  |  |  | 1.17
RERF-LC-KJ | 0.875 | 0.697 | 0.455 | 0.609 | 0.393 | 0.436 | 0.394 | 0.348 | 0.358 | 0.863 | 0.958 | 0.797 | 0.878 | 0.71 | 0.719 | 0.664 | 0.757 | 0.78 | 0.567 | 1.03
NCI-H1650 | 1.18 | 0.83 | 0.337 | 0.416 | 0.429 | 0.4 | 0.423 | 0.405 | 0.463 | 0.48 | 0.686 | 0.71 | 0.556 | 0.626 | 0.367 | 0.405 | 0.502 | 0.368 | 0.427 | 0.998
BEN | 0.114 | 0.0623 | 0.0651 | 0.0432 | 0.24 | 0.239 | 0.293 | 0.262 | 0.286 | 0.971 | 1.08 | 0.972 | 1 | 1.08 | 0.714 | 0.655 | 0.752 | 0.768 | 0.78 | 0.0698
EMC-BAC-2 | 1.19 | 1.11 | 0.867 | 0.642 | 0.497 | 0.593 | 0.496 | 0.508 | 0.487 | 0.83 |  | 0.876 | 0.82 | 0.902 | 0.938 |  | 0.862 | 0.924 | 0.943 | 1.13
LU99A | 0.704 | 0.291 | 0.173 | 0.185 |  | 0.741 | 0.987 | 0.715 | 0.853 | 0.518 | 0.51 | 0.531 |  | 0.498 | 0.841 | 0.921 | 0.802 |  | 0.87 | 0.689
